Experimental data taken from the PolyMetriX glass transition set.
± gives the standard deviation of the reports.

Row | Compound | glass transition temperature [°C]
1 | *CCCCCCCCCCCCC(=O)N* (repeat unit) | 41.00
2 | *c1ccc(Cc2ccc(N3C(=O)c4ccc(Oc5ccc(C(C)(C)c6ccc(Oc7ccc8c(c7)C(=O)N(*)C8=O)cc6)cc5)cc4C3=O)cc2)cc1 (repeat unit) | 217.00
3 | *c1cc(-c2nc3ccccc3[nH]2)cc(-n2c(=O)c3cc4c(=O)n(*)c(=O)c4cc3c2=O)c1 (repeat unit) | 180.00
4 | *c1ccc(C(c2ccc(N3C(=O)c4cc5c(cc4C3=O)C(C(F)(F)F)(C(F)(F)F)c3cc4c(cc3O5)C(=O)N(*)C4=O)cc2)(C(F)(F)F)C(F)(F)F)cc1 (repeat unit) | 430.00
5 | *CCc1ccc(CCNC(=O)CCCCCCCCCCCCCCCCC(=O)N*)cc1 (repeat unit) | 75.00
6 | *c1ccc(Oc2cccc(N3C(=O)c4ccc(Oc5ccc6ccc(Oc7ccc8c(c7)C(=O)N(*)C8=O)cc6c5)cc4C3=O)c2)cc1 (repeat unit) | 221.00
7 | *Oc1ccc(Oc2ccc(C(=O)c3ccc(C(=O)c4ccc(*)cc4)cc3)cc2)cc1 (repeat unit) | 152.00
8 | *c1ccc(Oc2ccc(C(C)(C)c3ccc(Oc4ccc(-c5nnc(*)n5-c5cccc(C(F)(F)F)c5)cc4)cc3)cc2)cc1 (repeat unit) | 190.00
9 | *Oc1ccc(C(C)(C)c2ccc(Oc3ccc(C(=O)c4c(C(=O)c5ccc(*)cc5)c(-c5ccc(F)cc5)c(-c5ccc(F)cc5)c(-c5ccc(F)cc5)c4-c4ccc(F)cc4)cc3)cc2)cc1 (repeat unit) | 252.00
10 | *CC(=O)NCCCCCCNC(=O)COC(=O)CCCCCCC(=O)O* (repeat unit) | 8.00
11 | *CCN(CCN1C(=O)c2ccc(C(c3ccc4c(c3)C(=O)N(*)C4=O)(C(F)(F)F)C(F)(F)F)cc2C1=O)c1ccc(/N=N/c2ccc([N+](=O)[O-])cc2)cc1 (repeat unit) | 210.00
12 | *Oc1ccc(CC(NC(=O)CCc2ccc(OC(=O)CCC(*)=O)cc2)C(=O)OCC)cc1 (repeat unit) | 78.00
13 | *N=P(*)(CC1COCCOCCOCCO1)OCC1COCCOCCOCCO1 (repeat unit) | -40.00
14 | *CC(*)n1cc2ccccc2n1 (repeat unit) | 41.50
15 | *CCCCCCCOC(=O)Nc1ccc(Cc2ccc(NC(=O)O*)cc2)cc1 (repeat unit) | 84.00
16 | *CC(*)(C)C(=O)OCCCCCCOc1ccc(OC(=O)c2ccc(OCCCCCCCC)cc2)cc1 (repeat unit) | -1.00

Row | Compound | glass transition temperature [°C]
17 | *Oc1ccc(C(CCC)c2ccc(OC(*)=O)cc2)cc1 (repeat unit) [Poly[1,1-butane bis(4-phenyl)carbonate] ] | 123 ± 0.6
18 | *c1ccc(Oc2ccc(C(c3ccc(Oc4ccc(-c5nnc(*)n5-c5cccc(C(F)(F)F)c5)cc4)cc3)(C(F)(F)F)C(F)(F)F)cc2)cc1 (repeat unit) | 185.00
19 | *c1c(C)cc(C)c(N2C(=O)c3cccc(Oc4c(C)cc(Cc5cc(C)c(Oc6cccc7c6C(=O)N(*)C7=O)c(C)c5)cc4C)c3C2=O)c1C (repeat unit) | 287.00
20 | *c1ccc(Oc2ccc(S(=O)(=O)c3ccc(Oc4ccc(-c5c6c(c(*)c7ccccc57)C(=O)N(CCCCCCCCCCCC)C6=O)cc4)cc3)cc2)cc1 (repeat unit) | 167.00
21 | *CCCCN1C(=O)C2C3C=CC(C4C(=O)N(*)C(=O)C34)C2C1=O (repeat unit) | 211.00
22 | *CC(*)(C)C(=O)OCC(C)(C)C1OCC(C)(C)CO1 (repeat unit) | 118.00
23 | *c1ccc(Oc2ccc(C(C)(C)c3ccc(Oc4ccc(-c5nnc(*)n5-c5ccc(S(=O)(=O)c6ccccc6)cc5)cc4)cc3)cc2)cc1 (repeat unit) | 198.00
24 | *c1ccc(Oc2ccc(-c3c(-c4ccccc4)nc4ccc(-c5ccc6nc(-c7ccccc7)c(*)c(-c7ccccc7)c6c5)cc4c3-c3ccccc3)cc2)cc1 (repeat unit) | 307.50
25 | *c1ccc(Oc2ccc(S(=O)(=O)c3ccc(Oc4ccc(N5C(=O)c6ccc(Oc7ccc(C(C)(C)c8ccc(Oc9ccc%10c(c9)C(=O)N(*)C%10=O)cc8)cc7)cc6C5=O)cc4)cc3)cc2)cc1 (repeat unit) | 200.00
26 | *CC(*)(F)C(F)(F)F (repeat unit) | 49.00
27 | *Oc1ccc(C(=O)OCCCCCCCOC(=O)c2ccc(OC(=O)c3ccc(C(*)=O)cc3)cc2)cc1 (repeat unit) | 70.00
28 | *CC(*)OC(=O)CC1CCCCC1 (repeat unit) | 25.00
29 | *Oc1ccc(NC(=O)c2cc(-c3ccc(C(=O)OCC)c(C(=O)Nc4ccc(*)cc4)c3)ccc2C(=O)OCC)cc1 (repeat unit) | 190.2
30 | *OC(=O)C(Cc1ccccc1)NC(=O)CCCCCCCCC(=O)NC(Cc1ccccc1)C(=O)OC1COC2C(*)COC12 (repeat unit) | 74.00
31 | *CC(=O)NCCCCCCNC(=O)COC(=O)CCC(=O)O* (repeat unit) | 30.00
